Here are results for one molecule from ChEMBL document CHEMBL4602732, “Optimizing Pyrazolopyrimidine Inhibitors of Calcium Dependent Protein Kinase 1 for Treatment of Acute and Chronic Toxoplasmosis” (J Med Chem, 2020).

Data set [1] deals with Toxoplasma gondii. Description: Antiparasitic activity against type 1 Toxoplasma gondii RH tachyzoites infected in CD1 mouse assessed as reduction in parasite expansion at 30 mg/kg, po administered twice daily via gavage for 7 days by bioluminescence assay. It is filed as functional, organism-based.
In data set [2] the test system is Toxoplasma gondii. Description: Antiparasitic activity against type 1 Toxoplasma gondii RH tachyzoites infected in CD1 mouse assessed as reduction in mouse death at 30 mg/kg, po administered twice daily via gavage for 7 days by bioluminescence assay. Format: functional, organism-based.
The test system of data set [3] is Toxoplasma gondii. Put plainly: Antiparasitic activity against type 1 Toxoplasma gondii RH tachyzoites infected in CD1 mouse assessed as […] at 30 mg/kg, po administered twice daily via gavage for 7 days followed by lung and brain isolation on 15 days post-infection and co-culture with naive CD1 mouse. Format: functional.
Data set [4] deals with Toxoplasma gondii. Description: Antiparasitic activity against type 2 Toxoplasma gondii ME49 tachyzoites infected in HFF assessed as reduction in parasite growth. Format: functional, organism-based.
A short description of data set [5]: Ratio of drug level in central nervous system to plasma in CD1 mouse at 10 mg/kg, po administered via gavage measured after 8 hrs by LC-MS/MS analysis. Particulars: central nervous system and plasma. It is filed as ADME, organism-based, CNS/Plasma.
The subject of data set [6] is Toxoplasma gondii. Put plainly: Protection against reactivation of type 2 Toxoplasma gondii ME49 infection in sulfadiazin-treated Ifngr1-/- CD1 mouse assessed as reduction in mouse death at 60 mg/kg, po administered twice daily via gavage for 8 days measured up to 30 days. Format: functional, organism-based.
The nature of data set [7]: Protein binding in mouse brain assessed as unbound fraction. It is filed as ADME, tissue-based.
Data set [8] relates to Toxoplasma gondii. Put plainly: Antiparasitic activity against type 1 Toxoplasma gondii RH tachyzoites infected in CD1 mouse assessed as reduction in mouse death at 60 mg/kg, po administered once daily via gavage for 7 days followed by lung and brain isolation on 15 days post-infection and co-culture with naive CD1 mouse. Format: functional, organism-based.
Data set [9] relates to Toxoplasma gondii. Description: Antiparasitic activity against type 1 Toxoplasma gondii RH tachyzoites infected in CD1 mouse assessed as reduction in parasite dissemination at 15 mg/kg, po administered four times daily via gavage for 7 days by bioluminescence assay. It is filed as functional, organism-based.
The test system of data set [10] is Toxoplasma gondii. Put plainly: Antiparasitic activity against type 1 Toxoplasma gondii RH tachyzoites infected in CD1 mouse assessed as reduction in parasite expansion at 15 mg/kg, po administered four times daily via gavage for 7 days by bioluminescence assay. Format: functional, organism-based.
Data set [11] concerns the target T1, ALK5 (TGF-beta receptor type-1) (Homo sapiens, UniProt P36897).
T1 sequence (P36897 whole entry): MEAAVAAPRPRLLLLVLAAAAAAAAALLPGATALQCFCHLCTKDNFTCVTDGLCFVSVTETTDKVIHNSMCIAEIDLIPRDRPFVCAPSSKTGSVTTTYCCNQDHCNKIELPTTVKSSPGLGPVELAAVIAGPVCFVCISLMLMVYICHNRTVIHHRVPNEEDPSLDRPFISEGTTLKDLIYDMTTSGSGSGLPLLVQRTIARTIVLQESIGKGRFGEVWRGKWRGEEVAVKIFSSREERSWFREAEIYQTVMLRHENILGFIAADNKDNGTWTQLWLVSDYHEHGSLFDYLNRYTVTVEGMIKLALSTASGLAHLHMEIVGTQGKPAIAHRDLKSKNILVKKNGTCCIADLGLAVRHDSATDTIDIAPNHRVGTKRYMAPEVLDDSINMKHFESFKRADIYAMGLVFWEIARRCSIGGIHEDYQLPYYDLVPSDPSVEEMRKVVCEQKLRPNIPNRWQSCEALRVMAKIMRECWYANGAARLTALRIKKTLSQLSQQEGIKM
Description: Inhibition of human […] N-terminal GST-tagged ALK5 (200 to 503 residues) expressed in baculovirus expression system at 1 uM by Lanthascreen assay relative to control.

For data set [12], the system named is Toxoplasma gondii. Put plainly: Antiparasitic activity against type 1 Toxoplasma gondii RH tachyzoites infected in CD1 mouse assessed as reduction in parasite expansion at 60 mg/kg, po administered once daily via gavage for 7 days by bioluminescence assay. Format: functional, organism-based.
Data set [13] has as its target T2, Alpha-2A adrenergic receptor (Homo sapiens, UniProt P08913).
T2 sequence (P08913 whole entry): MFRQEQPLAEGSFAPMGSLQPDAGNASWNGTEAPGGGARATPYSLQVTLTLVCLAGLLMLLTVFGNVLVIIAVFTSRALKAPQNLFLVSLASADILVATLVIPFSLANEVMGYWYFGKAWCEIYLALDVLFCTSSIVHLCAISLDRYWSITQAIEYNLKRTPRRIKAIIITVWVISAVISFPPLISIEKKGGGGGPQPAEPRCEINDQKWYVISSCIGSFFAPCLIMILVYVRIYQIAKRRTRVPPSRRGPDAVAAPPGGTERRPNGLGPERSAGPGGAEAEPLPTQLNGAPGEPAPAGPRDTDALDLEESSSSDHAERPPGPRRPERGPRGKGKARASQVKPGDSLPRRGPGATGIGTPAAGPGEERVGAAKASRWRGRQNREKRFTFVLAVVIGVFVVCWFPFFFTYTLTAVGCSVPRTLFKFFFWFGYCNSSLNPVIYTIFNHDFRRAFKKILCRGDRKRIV
Description: Antagonist activity at recombinant human Gi/Go-coupled ADRA2A expressed in CHOK1 cells assessed as reduction in UK14304-induced inhibition of forskolin-stimulated cAMP accumulation. Format: cell-based. Particulars: cho-k1. (In general: Changes in cAMP serve as a functional read-out for many G protein-coupled receptors.)

Data set [14] in a line: Time at which plasma concentration stays above in vitro EC50 for antiparasitic activity against 2F clone of type 1 Toxoplasma gondii RH tachyzoites expressing luciferase infected in HFF in CD1 mouse at 30 mg/kg, po. Format: ADME, organism-based. The settings on record: in vivo.
Another data set concerns the target MAP4K4 (Homo sapiens, UniProt O95819). Description: Inhibition of recombinant human GST-tagged MAP4K4 catalytic domain expressed in baculovirus expression system at 1 uM by Lanthascreen assay relative to control. (Time-resolved FRET reads energy transfer from a long-lived donor to a nearby acceptor.)
The test system of data set [15] is Toxoplasma gondii. Put plainly: Protection against reactivation of type 2 Toxoplasma gondii ME49 infection in sulfadiazin-treated Ifngr1-/- CD1 mouse assessed as increase in weight gain at 60 mg/kg, po administered twice daily via gavage for 21 days measured up to 30 days. It is filed as functional, organism-based.
The target of the next data set is Cytochrome P450 2C19 (Homo sapiens, UniProt P33261). Put plainly: Inhibition of CYP2C19 in human liver microsomes using S-mephenytoin as substrate measured after 10 mins by LC-MS/MS analysis. Format: ADME.
Data set [16] concerns Toxoplasma gondii. Put plainly: Antiparasitic activity against Toxoplasma gondii type III CTG tachyzoites infected in HFF assessed as reduction in parasite growth. Format: functional, organism-based.
For data set [17], the system named is Toxoplasma gondii. Put plainly: Antiparasitic activity against type 1 Toxoplasma gondii RH tachyzoites infected in CD1 mouse assessed as reduction in parasite dissemination at 60 mg/kg, po administered once daily via gavage for 7 days by bioluminescence assay. It is filed as functional, organism-based.
For data set [18], the system named is Toxoplasma gondii. Put plainly: Antiparasitic activity against type 1 Toxoplasma gondii RH tachyzoites infected in CD1 mouse assessed as […] at 15 mg/kg, po administered four times daily via gavage for 7 days followed by lung and brain isolation on 15 days post-infection and co-culture with naive CD1 mouse. Format: functional.
The test system of data set [19] is Toxoplasma gondii. Description: Antiparasitic activity against type 1 Toxoplasma gondii RH tachyzoites infected in CD1 mouse assessed as reduction in parasite dissemination at 30 mg/kg, po administered twice daily via gavage for 7 days by bioluminescence assay. It is filed as functional, organism-based.
Data set [20] deals with Toxoplasma gondii. Description: Protection against reactivation of type 2 Toxoplasma gondii ME49 infection in sulfadiazin-treated Ifngr1-/- CD1 mouse assessed as reduction in parasite infection at 60 mg/kg, po administered twice daily via gavage for 8 days measured up to 30 days by luciferase reporter gene based bioluminescence assay. Format: functional, organism-based. In general terms: A reporter such as luciferase makes a cellular process visible.

The source made the active and inactive calls. The calls are words filed in the database; no cut-off is given here. Bounds are passed on as bounds.

Cytochrome P450 2C19, sequence (P33261 whole entry): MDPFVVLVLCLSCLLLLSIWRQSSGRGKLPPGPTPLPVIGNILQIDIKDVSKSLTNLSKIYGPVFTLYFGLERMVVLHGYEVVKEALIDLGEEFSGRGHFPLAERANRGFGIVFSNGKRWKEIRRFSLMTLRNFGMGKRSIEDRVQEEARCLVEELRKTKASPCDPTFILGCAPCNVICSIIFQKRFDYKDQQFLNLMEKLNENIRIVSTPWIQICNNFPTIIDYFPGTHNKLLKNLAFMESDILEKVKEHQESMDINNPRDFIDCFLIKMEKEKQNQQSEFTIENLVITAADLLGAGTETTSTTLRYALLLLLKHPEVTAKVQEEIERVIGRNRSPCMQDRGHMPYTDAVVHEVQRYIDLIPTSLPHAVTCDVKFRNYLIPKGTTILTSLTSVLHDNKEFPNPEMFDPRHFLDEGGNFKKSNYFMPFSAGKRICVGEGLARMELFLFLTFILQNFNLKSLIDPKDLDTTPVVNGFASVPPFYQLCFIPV
MAP4K4, sequence (O95819 whole entry, the tested form may be a part): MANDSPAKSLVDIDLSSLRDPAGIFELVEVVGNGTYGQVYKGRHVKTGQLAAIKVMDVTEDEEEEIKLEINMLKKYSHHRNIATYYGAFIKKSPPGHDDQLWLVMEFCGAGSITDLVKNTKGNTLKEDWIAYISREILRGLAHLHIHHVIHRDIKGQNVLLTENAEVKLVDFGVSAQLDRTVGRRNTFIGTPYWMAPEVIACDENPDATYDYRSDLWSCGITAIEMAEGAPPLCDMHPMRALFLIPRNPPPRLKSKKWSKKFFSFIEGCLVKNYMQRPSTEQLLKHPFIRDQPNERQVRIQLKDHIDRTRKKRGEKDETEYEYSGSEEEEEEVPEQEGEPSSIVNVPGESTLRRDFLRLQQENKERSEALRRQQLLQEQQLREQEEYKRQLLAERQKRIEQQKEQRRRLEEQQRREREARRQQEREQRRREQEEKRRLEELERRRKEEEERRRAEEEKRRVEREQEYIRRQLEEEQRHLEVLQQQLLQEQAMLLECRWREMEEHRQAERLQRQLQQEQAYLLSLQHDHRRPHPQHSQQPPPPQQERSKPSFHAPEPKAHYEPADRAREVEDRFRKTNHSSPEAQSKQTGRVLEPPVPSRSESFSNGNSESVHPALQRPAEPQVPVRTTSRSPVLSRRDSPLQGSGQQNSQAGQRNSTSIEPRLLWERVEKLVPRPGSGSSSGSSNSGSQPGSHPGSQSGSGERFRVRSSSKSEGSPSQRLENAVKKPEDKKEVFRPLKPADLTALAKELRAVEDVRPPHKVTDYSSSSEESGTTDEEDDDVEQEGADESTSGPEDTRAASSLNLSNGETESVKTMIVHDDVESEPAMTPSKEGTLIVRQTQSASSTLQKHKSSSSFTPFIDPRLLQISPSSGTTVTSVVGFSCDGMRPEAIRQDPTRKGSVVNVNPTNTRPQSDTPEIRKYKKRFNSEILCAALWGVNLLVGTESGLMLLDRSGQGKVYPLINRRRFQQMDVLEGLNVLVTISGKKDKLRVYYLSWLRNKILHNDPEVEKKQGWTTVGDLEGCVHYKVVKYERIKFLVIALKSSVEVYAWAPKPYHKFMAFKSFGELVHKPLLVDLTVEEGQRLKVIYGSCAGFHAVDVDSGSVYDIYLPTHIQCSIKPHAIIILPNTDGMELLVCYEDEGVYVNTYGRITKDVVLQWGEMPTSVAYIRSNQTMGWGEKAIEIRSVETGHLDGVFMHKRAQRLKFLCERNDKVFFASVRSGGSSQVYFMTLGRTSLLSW

In the case of `Nc1ncnc2c1c(Oc1cc(C(F)(F)F)ccn1)nn2C1CC1`, the result in the data set on Toxoplasma gondii [1], in the data set on Toxoplasma gondii [2], in the data set with Toxoplasma gondii [6], with Toxoplasma gondii [9], with Toxoplasma gondii [10] and with Toxoplasma gondii [12] was Active. Besides, the outcome with Toxoplasma gondii [15], in the data set with Toxoplasma gondii [17] and in the data set with Toxoplasma gondii [19] was Active. In addition, the survival at 30 mg/kg with Toxoplasma gondii [3] stood at 20%. In addition, the EC50 (in general, the midpoint of the concentration-response curve) with Toxoplasma gondii [4] is 260 nM; on Cytochrome P450 2C19, 5780 nM; with Toxoplasma gondii [16], 168 nM. Further, the Kp (in general, the ratio of the level in a tissue or fluid to that in plasma or blood) at 8 h in [5] amounted to 0.96. Besides, in [7], the fraction unbound (commonly the share of the substance not bound to proteins or other matrix) is 0.101. Further, the result in the data set with Toxoplasma gondii [8] and in the data set on Toxoplasma gondii [20] was inactive. Besides, the inhibition at 1 µM (in data set [11]; on MAP4K4) was greater than 50% in each case. In data set [13], the “inhibition (INH)” value is recorded as 51%. Also, in data set [14], the “T>EC50” value turned out to be 8 h. Also, the survival at 15 mg/kg in the data set with Toxoplasma gondii [18] was 20%.
